Source: patent US20220323406A1, “METHODS AND COMPOSITIONS FOR DIFFERENTIATING STEM CELLS” (Massachusetts Institute of Technology, priority 2019, published 2022)

Columns and labels:
[1] = tested on: ENR+CD organoids (ISC to Paneth cell differentiation); assay: Primary screen: CCh-stimulated lysozyme secretion LYZ.S, 2.5-D 384-well ENR+CD organoid differentiation; type: cell-based, mouse; details: primary screen
Description: (§1) High-throughput screening.

[2] = tested on: ENR+CD organoids (ISC to Paneth cell differentiation); assay: Secondary (validation) screen: LYZ.NS basal lysozyme secretion, 2.5-D 384-well ENR+CD organoids; type: cell-based, mouse; details: for Dose.FC.LYZ.NS / Z.LYZ.NS / repSSMD.LYZ.NS: 6-day ENR+CD, vs ENR+CD+DMSO
Procedure: (§2) Drugs were tested at a narrowed dose range around each treatment's identified optimal dose from the primary screen (4× below, 2× above and below).
as §1
(§3) Secondary lysozyme secretion assay screen. Confirmatory secondary screening with primary hits was performed using the above 384-well plate method. The screen was conducted with 4-plate replicates with a base media of ENR+CD. Media was supplemented with compound at day 0 and day 3 (n=8 well replicates per dose) at four different doses: two-fold above, two-fold below, and four-fold below the optimal final dose for each respective treatment. Additionally, each plate carried a large number of ENR+DMSO or ENR+CD+DMSO (vehicle) control wells (n=100 for ATP, and n=25 for LYZ.NS and LYZ.S) for robust normalization. ATP, non-stimulated lysozyme activity and CCh-stimulated lysozyme activity was again measured and the collected data was again processed in a custom R-script, per primary screen with slight modification. Values were log10 transformed, and a plate-wise FC was calculated for each well based on the median value of ENR+CD+DMSO (vehicle) control wells to normalize plate to plate variability.

ENR+CD organoids [3] = assay: Secondary (validation) screen: ATP (CTG) assay, 2.5-D 384-well ENR+CD organoids; type: cell-based, mouse; details: 6-day ENR+CD, vs ENR+CD+DMSO
Procedure: as §2, §1, §3

ENR+CD organoids [4] = assay: Primary screen: ATP (CellTiter-Glo 3D, CTG) cell number/viability, 2.5-D 384-well ENR+CD organoids; details: primary screen; for Z.CTG: standard z score;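 for all read-outs here: compounds given at plating and again on day 3 over a 6-day differentiation from ENR+CV stem-cell-enriched precursors, ATP measured on day 6, plate median as control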
[5] = tested on: ENR+CD organoids (ISC to Paneth cell differentiation); assay: Primary screen: basal (non-stimulated) lysozyme secretion LYZ.NS, 2.5-D 384-well ENR+CD organoid differentiation; type: cell-based, mouse; details: for Dose.FC.LYZ.NS / Z.LYZ.NS / Z.LYZ.NS (standard z score): primary screen; for Z.LYZ.NS: standard z score
Description: as §1

[6] = tested on: ENR+CD organoids (ISC to Paneth cell differentiation); assay: Secondary (validation) screen: LYZ.S CCh-stimulated lysozyme secretion, 2.5-D 384-well ENR+CD organoids; type: cell-based, mouse; details: 6-day ENR+CD, vs ENR+CD+DMSO
Procedure: as §2, §1, §3

[7] = dose 0.08 uM, FC relative to plate median
[8] = dose 0.40 uM, FC relative to plate median
[9] = dose 2.00 uM, FC relative to plate median
[10] = dose 10.00 uM, FC relative to plate median
[11] = dose 0.08 uM, FC vs plate median
[12] = dose 0.40 uM, FC vs plate median
[13] = dose 2.00 uM, FC vs plate median
[14] = dose 10.00 uM, FC vs plate median

## COc1ccc(C2CNC(=O)C2)cc1OC1CCCC1 (stereo not shown) [Rolipram, reference compound]
[1]; [7]
  Dose.FC.LYZ.S: 0.239 log2 fold change
[1]; [8]
  Dose.FC.LYZ.S: 0.156 log2 fold change
[1]; [9]
  Dose.FC.LYZ.S: 0.337 log2 fold change
[1]; [10]
  Dose.FC.LYZ.S: 0.223 log2 fold change
[2]; 0.50 uM
  Dose.FC.LYZ.NS: −0.043 log2 fold change
[2]; 1.00 uM
  Dose.FC.LYZ.NS: 0.152 log2 fold change
[2]; 2.00 uM
  Dose.FC.LYZ.NS: 0.099 log2 fold change
[2]; 4.00 uM
  Dose.FC.LYZ.NS: −0.051 log2 fold change
ENR+CD organoids [3]; 0.50 uM
  Dose.FC.CTG: 0.053 log2 fold change
ENR+CD organoids [3]; 1.00 uM
  Dose.FC.CTG: 0.133 log2 fold change
ENR+CD organoids [3]; 2.00 uM
  Dose.FC.CTG: 0.202 log2 fold change
ENR+CD organoids [3]; 4.00 uM
  Dose.FC.CTG: 0.065 log2 fold change
ENR+CD organoids [4]; [7]
  Dose.FC.CTG: 0.356 log2 fold change
ENR+CD organoids [4]; [8]
  Dose.FC.CTG: 0.155 log2 fold change
ENR+CD organoids [4]; [9]
  Dose.FC.CTG: 0.396 log2 fold change
ENR+CD organoids [4]; [10]
  Dose.FC.CTG: 0.299 log2 fold change
[5]; LYZ.NS and LYZ.S, 0.08-10 uM, 6 days ENR+CD
  primary screen hit call (SSMD and z-scored FC cutoffs in both LYZ assays): sole hit in their respective pathway
[5]; [7]
  Dose.FC.LYZ.NS: 0.406 log2 fold change
[5]; dose 0.08 uM
  Z.LYZ.NS: 3.532
[5]; [8]
  Dose.FC.LYZ.NS: 0.063 log2 fold change
[5]; dose 0.40 uM
  Z.LYZ.NS: 0.545
[5]; [9]
  Dose.FC.LYZ.NS: 0.169 log2 fold change
[5]; dose 2.00 uM
  Z.LYZ.NS: 1.470
[5]; [10]
  Dose.FC.LYZ.NS: 0.112 log2 fold change
[5]; dose 10.00 uM
  Z.LYZ.NS: 0.975
[6]; 0.50 uM
  Dose.FC.LYZ.S: −0.082 log2 fold change
[6]; 1.00 uM
  Dose.FC.LYZ.S: 0.104 log2 fold change
[6]; 2.00 uM
  Dose.FC.LYZ.S: 0.030 log2 fold change
[6]; 4.00 uM
  Dose.FC.LYZ.S: −0.071 log2 fold change

## COc1cc(Nc2c(C#N)cnc3cc(OCCCN4CCN(C)CC4)c(OC)cc23)c(Cl)cc1Cl [Bosutinib (SKI-606), Bosutinib, reference compound]
[1]; dose 0.08 uM
  Dose.FC.LYZ.S: 0.308 log2 fold change
[1]; dose 0.40 uM
  Dose.FC.LYZ.S: 0.208 log2 fold change
[1]; dose 2.00 uM
  Dose.FC.LYZ.S: −0.058 log2 fold change
[1]; dose 10.00 uM
  Dose.FC.LYZ.S: −0.223 log2 fold change
[2]; 0.02 uM
  Dose.FC.LYZ.NS: 0.133 log2 fold change
[2]; 0.04 uM
  Dose.FC.LYZ.NS: −0.067 log2 fold change
[2]; 0.08 uM
  Dose.FC.LYZ.NS: −0.070 log2 fold change
[2]; […]
  Dose.FC.LYZ.NS: 0.068 log2 fold change
ENR+CD organoids [3]; 0.02 uM
  Dose.FC.CTG: 0.216 log2 fold change
ENR+CD organoids [3]; 0.04 uM
  Dose.FC.CTG: 0.139 log2 fold change
ENR+CD organoids [3]; 0.08 uM
  Dose.FC.CTG: 0.082 log2 fold change
ENR+CD organoids [3]; […]
  Dose.FC.CTG: 0.128 log2 fold change
ENR+CD organoids [4]; dose 0.08 uM
  Dose.FC.CTG: 0.628 log2 fold change
ENR+CD organoids [4]; dose 0.40 uM
  Dose.FC.CTG: 0.302 log2 fold change
ENR+CD organoids [4]; dose 2.00 uM
  Dose.FC.CTG: −0.169 log2 fold change
ENR+CD organoids [4]; dose 10.00 uM
  Dose.FC.CTG: −0.668 log2 fold change
[5]; dose 0.08 uM
  Dose.FC.LYZ.NS: 0.213 log2 fold change
  Z.LYZ.NS (standard z score): 1.858
[5]; dose 0.40 uM
  Dose.FC.LYZ.NS: 0.130 log2 fold change
  Z.LYZ.NS (standard z score): 1.129
[5]; dose 2.00 uM
  Dose.FC.LYZ.NS: −0.049 log2 fold change
  Z.LYZ.NS (standard z score): −0.425
[5]; dose 10.00 uM
  Dose.FC.LYZ.NS: −0.115 log2 fold change
  Z.LYZ.NS (standard z score): −1.005
[6]; 0.02 uM
  Dose.FC.LYZ.S: 0.103 log2 fold change
[6]; 0.04 uM
  Dose.FC.LYZ.S: −0.086 log2 fold change
[6]; 0.08 uM
  Dose.FC.LYZ.S: −0.072 log2 fold change
[6]; […]
  Dose.FC.LYZ.S: 0.007 log2 fold change

## Cc1[nH]c(/C=C2\C(=O)Nc3ccc(S(=O)(=O)Cc4c(Cl)cccc4Cl)cc32)c(C)c1C(=O)N1CCC[C@@H]1CN1CCCC1 [PHA-665752]
[1]; [11]
  Dose.FC.LYZ.S: 0.163 log2 fold change
[1]; [12]
  Dose.FC.LYZ.S: 0.373 log2 fold change
[1]; [13]
  Dose.FC.LYZ.S: 0.143 log2 fold change
[1]; [14]
  Dose.FC.LYZ.S: −0.165 log2 fold change
[2]; 0.10 uM
  Dose.FC.LYZ.NS: 0.210 log2 fold change
  Z.LYZ.NS: 1.675
  repSSMD.LYZ.NS: 2.400
[2]; 0.20 uM
  Dose.FC.LYZ.NS: −0.027 log2 fold change
  Z.LYZ.NS: −0.219
  repSSMD.LYZ.NS: −0.350
[2]; 0.40 uM
  Dose.FC.LYZ.NS: 0.099 log2 fold change
  Z.LYZ.NS: 0.789
  repSSMD.LYZ.NS: 0.942
[2]; 0.80 uM
  Dose.FC.LYZ.NS: 0.090 log2 fold change
  Z.LYZ.NS: 0.722
  repSSMD.LYZ.NS: 1.142
[2]; LYZ.NS and LYZ.S
  validated doses in secondary screen (SSMD above cutoff in both LYZ assays): multiple validated doses
ENR+CD organoids [3]; 0.10 uM
  Dose.FC.CTG: 0.100 log2 fold change
  Z.CTG: 0.898
  repSSMD.CTG: 0.755
ENR+CD organoids [3]; 0.20 uM
  Dose.FC.CTG: −0.032 log2 fold change
  Z.CTG: −0.288
  repSSMD.CTG: −0.244
ENR+CD organoids [3]; 0.40 uM
  Dose.FC.CTG: 0.303 log2 fold change
  Z.CTG: 2.735
  repSSMD.CTG: 1.415
ENR+CD organoids [3]; 0.80 uM
  Dose.FC.CTG: 0.185 log2 fold change
  Z.CTG: 1.664
  repSSMD.CTG: 1.023
ENR+CD organoids [4]; dose 0.08 uM
  Z.CTG: 1.126
ENR+CD organoids [4]; dose 0.40 uM
  Z.CTG: 1.482
ENR+CD organoids [4]; dose 2.00 uM
  Z.CTG: 1.339
ENR+CD organoids [4]; dose 10.00 uM
  Z.CTG: 0.057
ENR+CD organoids [4]; [11]
  Dose.FC.CTG: 0.471 log2 fold change
ENR+CD organoids [4]; [12]
  Dose.FC.CTG: 0.620 log2 fold change
ENR+CD organoids [4]; [13]
  Dose.FC.CTG: 0.561 log2 fold change
ENR+CD organoids [4]; [14]
  Dose.FC.CTG: 0.024 log2 fold change
[5]; dose 0.08 uM
  Z.LYZ.NS: 1.586
[5]; dose 0.40 uM
  Z.LYZ.NS: 2.368
[5]; dose 2.00 uM
  Z.LYZ.NS: 1.591
[5]; dose 10.00 uM
  Z.LYZ.NS: −0.931
[5]; [11]
  Dose.FC.LYZ.NS: 0.182 log2 fold change
[5]; [12]
  Dose.FC.LYZ.NS: 0.272 log2 fold change
[5]; [13]
  Dose.FC.LYZ.NS: 0.183 log2 fold change
[5]; [14]
  Dose.FC.LYZ.NS: −0.107 log2 fold change
[6]; 0.10 uM
  Dose.FC.LYZ.S: 0.133 log2 fold change
  Z.LYZ.S: 1.019
  repSSMD.LYZ.S: 1.586
[6]; 0.20 uM
  Dose.FC.LYZ.S: −0.089 log2 fold change
  Z.LYZ.S: −0.680
  repSSMD.LYZ.S: −1.201
[6]; 0.40 uM
  Dose.FC.LYZ.S: 0.076 log2 fold change
  Z.LYZ.S: 0.585
  repSSMD.LYZ.S: 0.906
[6]; 0.80 uM
  Dose.FC.LYZ.S: 0.048 log2 fold change
  Z.LYZ.S: 0.365
  repSSMD.LYZ.S: 0.542

## N#CC[C@H](C1CCCC1)n1cc(-c2ncnc3[nH]ccc23)cn1 [Ruxolitinib (INCB018424), Ruxolitinib, reference compound]
[1]; [7]
  Dose.FC.LYZ.S: 0.150 log2 fold change
[1]; [8]
  Dose.FC.LYZ.S: 0.067 log2 fold change
[1]; [9]
  Dose.FC.LYZ.S: 0.105 log2 fold change
[1]; [10]
  Dose.FC.LYZ.S: 0.317 log2 fold change
[2]; 2.50 uM
  Dose.FC.LYZ.NS: −0.157 log2 fold change
[2]; 5.00 uM
  Dose.FC.LYZ.NS: −0.138 log2 fold change
[2]; 10.00 uM
  Dose.FC.LYZ.NS: −0.084 log2 fold change
[2]; 20.00 uM
  Dose.FC.LYZ.NS: 0.065 log2 fold change
ENR+CD organoids [3]; 2.50 uM
  Dose.FC.CTG: −0.014 log2 fold change
ENR+CD organoids [3]; 5.00 uM
  Dose.FC.CTG: −0.224 log2 fold change
ENR+CD organoids [3]; 10.00 uM
  Dose.FC.CTG: −0.153 log2 fold change
ENR+CD organoids [3]; 20.00 uM
  Dose.FC.CTG: 0.166 log2 fold change
ENR+CD organoids [4]; [7]
  Dose.FC.CTG: 0.458 log2 fold change
ENR+CD organoids [4]; [8]
  Dose.FC.CTG: 0.363 log2 fold change
ENR+CD organoids [4]; [9]
  Dose.FC.CTG: 0.445 log2 fold change
ENR+CD organoids [4]; [10]
  Dose.FC.CTG: 0.477 log2 fold change
[5]; [7]
  Dose.FC.LYZ.NS: 0.122 log2 fold change
[5]; dose 0.08 uM
  Z.LYZ.NS: 1.066
[5]; [8]
  Dose.FC.LYZ.NS: 0.070 log2 fold change
[5]; dose 0.40 uM
  Z.LYZ.NS: 0.611
[5]; [9]
  Dose.FC.LYZ.NS: 0.110 log2 fold change
[5]; dose 2.00 uM
  Z.LYZ.NS: 0.954
[5]; [10]
  Dose.FC.LYZ.NS: 0.295 log2 fold change
[5]; dose 10.00 uM
  Z.LYZ.NS: 2.569
[6]; 2.50 uM
  Dose.FC.LYZ.S: −0.182 log2 fold change
[6]; 5.00 uM
  Dose.FC.LYZ.S: −0.217 log2 fold change
[6]; 10.00 uM
  Dose.FC.LYZ.S: −0.168 log2 fold change
[6]; 20.00 uM
  Dose.FC.LYZ.S: 0.027 log2 fold change
